These results are taken from US20080312184A1 (priority 2005, published 2008).

For assay [1], the system named is powdery mildew pathogen (EBI resistant strain). The assay can be described thus: Control Test on Powdery Mildew of Cucumbers (EBI Resistant Strain). Type of assay: in vivo, cucumbers (cultivar: sagami-hanjiro). Conditions: single active ingredient.
Assay [2] relates to gray mold fungus (MBC resistant, dicarboximide-based chemical sensitive: RS strain). The assay can be described thus: Control Test on Gray Mold of Tomato at its Flowering Stage (RS Strain). Type of assay: in vivo, tomatoes (cultivar: House-Momotaro). The note with it: Table 4, single active ingredient, sprayed twice, examined after 7 days.
Setting [3] is: Table 1, treated concentration 10 ppm, examined after 14 days.

As for `O=C(Cc1ccccc1)N/C(=N\OCC1CC1)c1c(C(F)(F)F)ccc(F)c1F` [Cyflufenamid, cyflufenamid], the “Control Value” in assay [1] (Table 1, treated concentration 5 ppm, examined after 14 days) was found to be 66.
`CC(C)(C)C(=O)C(Oc1ccc(Cl)cc1)n1cncn1` (stereo not drawn) [Triadimefon, triadimefon]: in assay [1] (setting [3]), the “Control Value” is recorded as 29.
Take `CNC(=O)/C(=N/OC)c1ccccc1COc1cc(C)ccc1C` [Dimoxystrobin, dimoxystrobin]: in assay [1] (Table 7 (Example B), treated concentration 15 ppm), the “Control Value” is given as 60.
Take `CC(C)CC(C)c1sccc1NC(=O)c1cn(C)nc1C(F)(F)F` (racemic) [P (penthiopyrad), (RS)—N-[2-(1,3-dimethylbutyl)thiophen-3-yl]-1-methyl-3-tri fluoromethyl-1H-pyrazole-4-carboxamide]: the “Control Value” in assay [1] (setting [3]) came out at 68; in assay [1] (Table 7 (Example B), treated concentration 10 ppm), 68; in assay [2] (treated concentration 10 ppm), 56.
`CCCCc1c(C)nc(NCC)nc1OS(=O)(=O)N(C)C` [Bupirimate, bupirimate]: the “Control Value” in assay [1] (Table 1, treated concentration 20 ppm, examined after 14 days) is listed as 45.
In the case of `FC(F)C(F)(F)OCC(Cn1cncn1)c1ccc(Cl)cc1Cl` (stereo not drawn) [Tetraconazole, tetraconazole], in assay [1] (setting [3]), the “Control Value” is 34.
With `CC1(C(=O)Nc2ccc(O)c(Cl)c2Cl)CCCCC1` [Fenhexamid, fenhexamid], the “Control Value” in assay [2] (treated concentration 20 ppm) was found to be 55.
Turning to `Clc1nc(Cl)nc(Nc2ccccc2Cl)n1` [Anilazine, anilazine], the “Control Value” in assay [2] (treated concentration 50 ppm) amounted to 40.
`O=C(Nc1ccccc1-c1ccc(Cl)cc1)c1cccnc1Cl` [Boscalid, boscalid]: the “Control Value” in assay [2] (treated concentration 20 ppm) is recorded as 48.
Take `CCOC(=O)C1(C)OC(=O)N(c2cc(Cl)cc(Cl)c2)C1=O` (stereo not drawn) [Chlozolinate, chlozolinate]: the “Control Value” in assay [2] (treated concentration 40 ppm) was determined as 42.
